# Measured values published in patent US9695155B2, “Herbicidal substituted pyrimidinyloxy benzene compounds” (E. I. DU PONT DE NEMOURS AND COMPANY, priority 2013, dated 2017).
# Columns and labels:
# pigweed [1] = assay: Test A preemergence; assay type: in vivo, Amaranthus retroflexus; details: for Pigweed plant response rating: 0 to 100 scale, 0 no effect, 100 complete control, approx. 10 days
# In short: (§1)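 Visual 0–100 rating (100 = complete control) taken about 10 d post-treatment relative to untreated checks. Preemergence: directed soil spray on sown loam/sand pots. Postemergence: seedlings 2–10 cm, 1–2 leaf. Non-phytotoxic solvent formulation with surfactant.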
# kochia [2] = assay: Test A postemergence; assay type: in vivo, Kochia scoparia; details: 1000 g ai/ha, 0 to 100 scale, 0 no effect, 100 complete control
# From the text: (§2) Seeds of plant species selected from barnyardgrass (Echinochloa crus-galli), kochia (Kochia scoparia), ragweed (common ragweed, Ambrosia elatior), Italian ryegrass (Lolium multiflorum), large (Lg) crabgrass (Digitaria sanguinalis), giant foxtail (Setaria faberii), morningglory (Ipomoea spp.), pigweed (Amaranthus retroflexus), velvetleaf (Abutilon theophrasti), wheat (Triticum aestivum), and corn (Zea mays) were planted into a blend of loam soil and sand and treated preemergence with a directed soil spray using test chemicals formulated in a non-phytotoxic solvent mixture which included a surfactant.
# (§3) At the same time, plants selected from these crop and weed species and also blackgrass (Alopecurus myosuroides), and galium (catchweed bedstraw, Galium aparine) were planted in pots containing the same blend of loam soil and sand and treated with postemergence applications of test chemicals formulated in the same manner. Plants ranged in height from 2 to 10 cm and were in the one- to two-leaf stage for the postemergence treatment. Treated plants and untreated controls were maintained in a greenhouse for approximately 10 days, after which time all treated plants were compared to untreated controls and visually evaluated for injury. Plant response ratings, summarized in Table A, are based on a 0 to 100 scale where 0 is no effect and 100 is complete control. A dash (-) response means no test result.
# blackgrass = assay: Test A postemergence; assay type: in vivo, Alopecurus myosuroides; details: 1000 g ai/ha, 0 to 100 scale, 0 no effect, 100 complete control
# From the text: as §2, §3
# barnyardgrass [3] = assay: Test A preemergence; assay type: in vivo, Echinochloa crus-galli; details: for Barnyardgrass plant response rating: approx. 10 days
# In short: as §1
# Italian ryegrass [4] = assay: Test A preemergence; assay type: in vivo, Lolium multiflorum; details: 1000 g ai/ha, 0 to 100 scale, 0 no effect, 100 complete control, approx. 10 days
# From the text: as §2, §3
# ragweed [5] = assay: Test A preemergence; assay type: in vivo, Ambrosia elatior; details: 1000 g ai/ha, 0 to 100 scale, 0 no effect, 100 complete control, approx. 10 days
# From the text: as §2, §3
# kochia [6] = assay: Test A preemergence; assay type: in vivo, Kochia scoparia; details: 1000 g ai/ha, 0 to 100 scale, 0 no effect, 100 complete control, approx. 10 days
# From the text: as §2, §3
# wheat [7] = assay: Test A postemergence; assay type: in vivo, Triticum aestivum
# In short: as §1
# Italian ryegrass [8] = assay: Test A postemergence; assay type: in vivo, Lolium multiflorum; details: 1000 g ai/ha, 0 to 100 scale, 0 no effect, 100 complete control
# From the text: as §2, §3
# barnyardgrass [9] = assay: Test A postemergence; assay type: in vivo, Echinochloa crus-galli
# In short: as §1
# galium = assay: Test A postemergence; assay type: in vivo, Galium aparine; details: 1000 g ai/ha, 0 to 100 scale, 0 no effect, 100 complete control
# From the text: as §2, §3
# pigweed [10] = assay: Test A postemergence; assay type: in vivo, Amaranthus retroflexus
# In short: as §1
# giant foxtail [11] = assay: Test A preemergence; assay type: in vivo, Setaria faberii; details: for Foxtail, Giant plant response rating: 0 to 100 scale, 0 no effect, 100 complete control, approx. 10 days
# In short: as §1
# corn [12] = assay: Test A postemergence; assay type: in vivo, Zea mays
# In short: as §1
# ragweed [13] = assay: Test A postemergence; assay type: in vivo, Ambrosia elatior; details: 1000 g ai/ha, 0 to 100 scale, 0 no effect, 100 complete control
# From the text: as §2, §3
# giant foxtail [14] = assay: Test A postemergence; assay type: in vivo, Setaria faberii
# In short: as §1
# velvetleaf [15] = assay: Test A preemergence; assay type: in vivo, Abutilon theophrasti
# In short: as §1
# large (Lg) crabgrass [16] = assay: Test A postemergence; assay type: in vivo, Digitaria sanguinalis
# In short: as §1
# large (Lg) crabgrass [17] = assay: Test A preemergence; assay type: in vivo, Digitaria sanguinalis
# In short: as §1
# barnyardgrass [18] = assay: Test B flooded paddy test; assay type: in vivo, Echinochloa crus-galli; details: Flood, 250 g ai/ha; 0 to 100 scale where 0 is no effect and 100 is complete control
# In short: (§4)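 Scores from 0 (no effect) to 100 (complete control) are visual comparisons with controls, taken 13 to 15 days after compound was applied into floodwater 3 cm deep around 2-leaf plants.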
# corn [19] = assay: Test A preemergence; assay type: in vivo, Zea mays
# In short: as §1
# morningglory [20] = assay: Test A postemergence; assay type: in vivo, Ipomoea spp.
# In short: as §1
# Heteranthera limosa = assay: Test B flooded paddy test; assay type: in vivo; details: Flood, 250 g ai/ha; 0 to 100 scale where 0 is no effect and 100 is complete control
# In short: as §4
# sedge, umbrella = assay: Test B flooded paddy test; assay type: in vivo, Cyperus difformis; details: Flood, 250 g ai/ha; 0 to 100 scale where 0 is no effect and 100 is complete control
# In short: as §4
# rice = assay: Test B flooded paddy test; assay type: in vivo, Oryza sativa; details: Flood, 250 g ai/ha; 0 to 100 scale where 0 is no effect and 100 is complete control
# In short: as §4
# velvetleaf [21] = assay: Test A postemergence; assay type: in vivo, Abutilon theophrasti
# In short: as §1
# morningglory [22] = assay: Test A preemergence; assay type: in vivo, Ipomoea spp.
# In short: as §1
# wheat [23] = assay: Test A preemergence; assay type: in vivo, Triticum aestivum
# In short: as §1
# [24] = 1000 g ai/ha, 0 to 100 scale, 0 no effect, 100 complete control
# [25] = 125 g ai/ha, 0 to 100 scale where 0 is no effect and 100 is complete control
# [26] = 500 g ai/ha, 0 to 100 scale, 0 no effect, 100 complete control, approx. 10 days
# [27] = 500 g ai/ha, 0 to 100 scale, 0 no effect, 100 complete control
compound,measurement,setting,value
Fc1cccc(Oc2ncc(Cl)cn2)c1-n1cc(C2CCCCC2)nn1 [Compound 102],Pigweed plant response rating,pigweed [1]; 1000 g ai/ha,20
same,"Plant response rating, Kochia",kochia [2],30
same,"Plant response rating, Blackgrass",blackgrass,40
same,"Plant response rating, Barnyardgrass",barnyardgrass [3]; [24],50
same,"Ryegrass, Italian plant response rating",Italian ryegrass [4],0
same,Ragweed plant response rating,ragweed [5],0
same,Kochia plant response rating,kochia [6],0
same,"Plant response rating, Wheat",wheat [7]; [24],0
same,"Plant response rating, Ryegrass, Italian",Italian ryegrass [8],0
same,"Plant response rating, Barnyardgrass",barnyardgrass [9]; [24],50
same,"Plant response rating, Galium",galium,70
same,"Plant response rating, Pigweed",pigweed [10]; [24],80
same,"Foxtail, Giant plant response rating",giant foxtail [11]; 1000 g ai/ha,100
same,"Plant response rating, Corn",corn [12]; [24],20
same,"Plant response rating, Ragweed",ragweed [13],20
same,"Plant response rating, Foxtail, Giant",giant foxtail [14]; [24],40
Fc1cccc(Oc2ncc(Cl)cn2)c1-n1cc(-c2cccc(C(F)(F)F)c2)nn1 [Compound 276],Pigweed plant response rating,pigweed [1]; 1000 g ai/ha,0
same,"Plant response rating, Kochia",kochia [2],40
same,"Plant response rating, Blackgrass",blackgrass,20
same,Barnyardgrass plant response rating,barnyardgrass [3]; [24],0
same,"Ryegrass, Italian plant response rating",Italian ryegrass [4],0
same,Ragweed plant response rating,ragweed [5],0
same,Kochia plant response rating,kochia [6],0
same,"Plant response rating, Wheat",wheat [7]; [24],0
same,"Plant response rating, Ryegrass, Italian",Italian ryegrass [8],0
same,"Plant response rating, Barnyardgrass",barnyardgrass [9]; [24],20
same,"Plant response rating, Galium",galium,20
same,"Plant response rating, Pigweed",pigweed [10]; [24],80
same,"Foxtail, Giant plant response rating",giant foxtail [11]; 1000 g ai/ha,0
same,"Plant response rating, Corn",corn [12]; [24],10
same,"Plant response rating, Ragweed",ragweed [13],30
same,"Plant response rating, Foxtail, Giant",giant foxtail [14]; [24],20
Cc1cccc(Oc2ncc(Cl)cn2)c1-n1cc(Br)cn1 [Compound 44],"Plant response rating, Pigweed",pigweed [1]; [25],100
same,Pigweed plant response rating,pigweed [1]; 500 g ai/ha,100
same,"Plant response rating, Velvetleaf",velvetleaf [15]; [25],70
same,Velvetleaf plant response rating,velvetleaf [15]; [26],100
same,"Plant response rating, Crabgrass, Large",large (Lg) crabgrass [16]; [25],80
same,"Plant response rating, Crabgrass, Large",large (Lg) crabgrass [16]; [27],100
same,"Plant response rating, Crabgrass, Large",large (Lg) crabgrass [17]; [25],90
same,"Crabgrass, Large plant response rating",large (Lg) crabgrass [17]; [26],100
same,"Plant response rating, Barnyardgrass",barnyardgrass [18],20
same,"Plant response rating, Barnyardgrass",barnyardgrass [3]; [25],50
same,Barnyardgrass plant response rating,barnyardgrass [3]; [27],100
same,"Plant response rating, Corn",corn [19]; [25],0
same,Corn plant response rating,corn [19]; [26],20
same,"Plant response rating, Morningglory",morningglory [20]; [25],20
same,"Plant response rating, Morningglory",morningglory [20]; [27],60
same,"Plant response rating, Wheat",wheat [7]; [25],0
same,"Plant response rating, Wheat",wheat [7]; [27],30
same,"Plant response rating, Barnyardgrass",barnyardgrass [9]; [25],30
same,"Plant response rating, Barnyardgrass",barnyardgrass [9]; [27],90
same,"Plant response rating, Pigweed",pigweed [10]; [25],70
same,"Plant response rating, Pigweed",pigweed [10]; [27],100
same,"Plant response rating, Ducksalad",Heteranthera limosa,100
same,"Plant response rating, Foxtail, Giant",giant foxtail [11]; [25],60
same,"Foxtail, Giant plant response rating",giant foxtail [11]; 500 g ai/ha,100
same,"Plant response rating, Corn",corn [12]; [25],20
same,"Plant response rating, Corn",corn [12]; [27],40
same,"Plant response rating, Sedge, Umbrella","sedge, umbrella",90
same,"Plant response rating, Rice",rice,45
same,"Plant response rating, Velvetleaf",velvetleaf [21]; [25],100
same,"Plant response rating, Velvetleaf",velvetleaf [21]; [27],100
same,"Plant response rating, Morningglory",morningglory [22]; [25],50
same,Morningglory plant response rating,morningglory [22]; [26],60
same,"Plant response rating, Wheat",wheat [23]; [25],0
same,Wheat plant response rating,wheat [23]; [26],20
same,"Plant response rating, Foxtail, Giant",giant foxtail [14]; [25],50
same,"Plant response rating, Foxtail, Giant",giant foxtail [14]; [27],90
O=Cc1cn(-c2c(F)cccc2Oc2ncc(Cl)cn2)nn1 [Compound 139],Pigweed plant response rating,pigweed [1]; 1000 g ai/ha,50
same,"Plant response rating, Kochia",kochia [2],0
same,"Plant response rating, Blackgrass",blackgrass,0
same,Barnyardgrass plant response rating,barnyardgrass [3]; [24],0
same,"Ryegrass, Italian plant response rating",Italian ryegrass [4],0
same,Ragweed plant response rating,ragweed [5],0
same,Kochia plant response rating,kochia [6],0
same,"Plant response rating, Wheat",wheat [7]; [24],0
same,"Plant response rating, Ryegrass, Italian",Italian ryegrass [8],0
same,"Plant response rating, Barnyardgrass",barnyardgrass [9]; [24],0
same,"Plant response rating, Galium",galium,10
same,"Plant response rating, Pigweed",pigweed [10]; [24],30
same,"Foxtail, Giant plant response rating",giant foxtail [11]; 1000 g ai/ha,0
same,"Plant response rating, Corn",corn [12]; [24],20
same,"Plant response rating, Ragweed",ragweed [13],0
same,"Plant response rating, Foxtail, Giant",giant foxtail [14]; [24],0
